Reference: patent US8192962B2, “Processes for detecting toxic substances” (Daikin Industries, Ltd., priority 2001, dated 2012)

Test system: Transport facilitation protein genes
Assay: DNA chip mRNA expression in yeast, transport facilitation protein genes (Table 5)
Type: cell-based, Saccharomyces cerevisiae S288C
Experimental: Yeast (Saccharomyces cerevisiae S288C (α SUC2mal mel gap2 CUP1)) were incubated at 25° C. on YPD medium (yeast extract 1%, polypepton 2%, glucose 2%). One of toxic chemical substances was added to the cells at logarithmic growth phase, and the cells were further incubated for two hours. Cells were cultured without any chemical substance in the same condition, and were used as control. Concentrations of the chemical substances were defined to inhibit the growth of the yeast but not lead to death.
After completion of the incubation, the culture was centrifuged to collect the cells. To the cells, sodium acetate buffer (50 mM sodium acetate, 10 mM EDTA, 1% SDS) was added, and the mixture was shaken at 65° C. for five minutes, followed by returning to room temperature, and obtaining the supernatant, of which the procedures were repeated two times. To the supernatant, ½ amount of a solution of phenol/chloroform was added, and the mixture was centrifuged to give a supernatant, which was added with an equal amount of chloroform, and the mixture was centrifuged to give a supernatant. To the supernatant, an equal amount of isopropanol containing 0.3 M sodium acetate was added, and the mixture was allowed to stand at room temperature for 30 minutes, after which the mixture was centrifuged to give a sediment of the whole RNAs. Seventy % ethanol was added to the sediment, and the mixture was again centrifuged to give a sediment, which was then dried and dissolved in water. mRNA was isolated from the whole RNAs as followings. In view of the fact that a poly A chain is attached to the 3′ terminus of mRNA, a polynucleotide having a poly T structure which was immobilized on the surface of latex beads was used to trap the mRNA, and then the mRNA was washed and eluted with spine column (Oligotex-dT30<Super>mRNA Purification Kit, Takara). Reverse transcription of the mRNA was conducted with a reverse transcriptase (Super Script II Reverse Transcriptase; catalogue No. 18064-014, GibcoBRL) using fluorescence-labeled nucleotides to give cDNAs that were introduced with Cy3-dUTP or Cy5-dUTP during the reverse transcription.
The labeled cDNAs were dissolved in TE buffer (10mM Tris-HCl/1 mM EDTA, pH8.0), and the solution was dropped on the DNA chip containing the whole genes of yeast (DNA Chip Research Inc. Japan) so that the cDNAs were hybridized on the DNA chip at 65° C. for over 12 hours. The fluoresces intensity of the DNA chip was read with a scanner, and the ratio relative to the fluorescence intensity resulting from the absence of chemical substance was estimated as the following, which is shown in Tables 1 to 9: […]

`[Cl][Cd][Cl]` [(2), CdCl2] was tested, and the “The level of expressed mRNA in the presence of chemical substance/The level of expressed mRNA in the absence of chemical substance” value (yeast gene YBL030C) was 0.9, the “The level of expressed mRNA in the presence of chemical substance/The level of expressed mRNA in the absence of chemical substance” value (yeast gene YBL099W) was 0.9 and the “The level of expressed mRNA in the presence of chemical substance/The level of expressed mRNA in the absence of chemical substance” value (yeast gene YBR052C) was 1.6. The “The level of expressed mRNA in the presence of chemical substance/The level of expressed mRNA in the absence of chemical substance” value (yeast gene YBR068C) was 1.0, the “The level of expressed mRNA in the presence of chemical substance/The level of expressed mRNA in the absence of chemical substance” value (yeast gene YBR127C) was 0.7 and the “The level of expressed mRNA in the presence of chemical substance/The level of expressed mRNA in the absence of chemical substance” value (yeast gene YBR132C) was 1.9. For the same compound, the “The level of expressed mRNA in the presence of chemical substance/The level of expressed mRNA in the absence of chemical substance” value (yeast gene YBR207W) was 1.7, the “The level of expressed mRNA in the presence of chemical substance/The level of expressed mRNA in the absence of chemical substance” value (yeast gene YBR293W) was 3.1 and the “The level of expressed mRNA in the presence of chemical substance/The level of expressed mRNA in the absence of chemical substance” value (yeast gene YBR294W) was 14.4. The “The level of expressed mRNA in the presence of chemical substance/The level of expressed mRNA in the absence of chemical substance” value (yeast gene YBR295W) was 1.5, the “The level of expressed mRNA in the presence of chemical substance/The level of expressed mRNA in the absence of chemical substance” value (yeast gene YBR298C) was 1.0 and the “The level of expressed mRNA in the presence of chemical substance/The level of expressed mRNA in the absence of chemical substance” value (yeast gene YCL025C) was 4.6. For the same compound, the “The level of expressed mRNA in the presence of chemical substance/The level of expressed mRNA in the absence of chemical substance” value (yeast gene YCL038C) was 1.6, the “The level of expressed mRNA in the presence of chemical substance/The level of expressed mRNA in the absence of chemical substance” value (yeast gene YCR024C-A) was 0.9 and the “The level of expressed mRNA in the presence of chemical substance/The level of expressed mRNA in the absence of chemical substance” value (yeast gene YCR037C) was 1.0. For the same compound, the “The level of expressed mRNA in the presence of chemical substance/The level of expressed mRNA in the absence of chemical substance” value (yeast gene YCR098C) was 3.0, the “The level of expressed mRNA in the presence of chemical substance/The level of expressed mRNA in the absence of chemical substance” value (yeast gene YDL128W) was 1.1 and the “The level of expressed mRNA in the presence of chemical substance/The level of expressed mRNA in the absence of chemical substance” value (yeast gene YDL198C) was 1.0. The “The level of expressed mRNA in the presence of chemical substance/The level of expressed mRNA in the absence of chemical substance” value (yeast gene YDL210W) was 2.2, the “The level of expressed mRNA in the presence of chemical substance/The level of expressed mRNA in the absence of chemical substance” value (yeast gene YDL245C) was 2.4 and the “The level of expressed mRNA in the presence of chemical substance/The level of expressed mRNA in the absence of chemical substance” value (yeast gene YDR038C) was 1.3. For the same compound, the “The level of expressed mRNA in the presence of chemical substance/The level of expressed mRNA in the absence of chemical substance” value (yeast gene YDR039C) was 1.6, the “The level of expressed mRNA in the presence of chemical substance/The level of expressed mRNA in the absence of chemical substance” value (yeast gene YDR086C) was 1.0 and the “The level of expressed mRNA in the presence of chemical substance/The level of expressed mRNA in the absence of chemical substance” value (yeast gene YDR270W) was 1.5. For the same compound, the “The level of expressed mRNA in the presence of chemical substance/The level of expressed mRNA in the absence of chemical substance” value (yeast gene YDR298C) was 1.2, the “The level of expressed mRNA in the presence of chemical substance/The level of expressed mRNA in the absence of chemical substance” value (yeast gene YDR342C) was 1.1 and the “The level of expressed mRNA in the presence of chemical substance/The level of expressed mRNA in the absence of chemical substance” value (yeast gene YDR343C) was 1.0. The “The level of expressed mRNA in the presence of chemical substance/The level of expressed mRNA in the absence of chemical substance” value (yeast gene YDR345C) was 0.9, the “The level of expressed mRNA in the presence of chemical substance/The level of expressed mRNA in the absence of chemical substance” value (yeast gene YDR387C) was 0.9 and the “The level of expressed mRNA in the presence of chemical substance/The level of expressed mRNA in the absence of chemical substance” value (yeast gene YDR497C) was 0.5. For the same compound, the “The level of expressed mRNA in the presence of chemical substance/The level of expressed mRNA in the absence of chemical substance” value (yeast gene YEL027W) was 0.6, the “The level of expressed mRNA in the presence of chemical substance/The level of expressed mRNA in the absence of chemical substance” value (yeast gene YEL063C) was 0.8 and the “The level of expressed mRNA in the presence of chemical substance/The level of expressed mRNA in the absence of chemical substance” value (yeast gene YEL065W) was 3.8. For the same compound, the “The level of expressed mRNA in the presence of chemical substance/The level of expressed mRNA in the absence of chemical substance” value (yeast gene YER053C) was 1.8, the “The level of expressed mRNA in the presence of chemical substance/The level of expressed mRNA in the absence of chemical substance” value (yeast gene YFL011W) was 0.7 and the “The level of expressed mRNA in the presence of chemical substance/The level of expressed mRNA in the absence of chemical substance” value (yeast gene YFL041W) was 1.6. For the same compound, the “The level of expressed mRNA in the presence of chemical substance/The level of expressed mRNA in the absence of chemical substance” value (yeast gene YFL050C) was 1.0, the “The level of expressed mRNA in the presence of chemical substance/The level of expressed mRNA in the absence of chemical substance” value (yeast gene YFL054C) was 1.1 and the “The level of expressed mRNA in the presence of chemical substance/The level of expressed mRNA in the absence of chemical substance” value (yeast gene YGL006W) was 1.3. For the same compound, the “The level of expressed mRNA in the presence of chemical substance/The level of expressed mRNA in the absence of chemical substance” value (yeast gene YGL008C) was 0.7, the “The level of expressed mRNA in the presence of chemical substance/The level of expressed mRNA in the absence of chemical substance” value (yeast gene YGL104C) was 2.0 and the “The level of expressed mRNA in the presence of chemical substance/The level of expressed mRNA in the absence of chemical substance” value (yeast gene YGL167C) was 0.7. The “The level of expressed mRNA in the presence of chemical substance/The level of expressed mRNA in the absence of chemical substance” value (yeast gene YGL255W) was 0.9, the “The level of expressed mRNA in the presence of chemical substance/The level of expressed mRNA in the absence of chemical substance” value (yeast gene YGR055W) was 5.7 and the “The level of expressed mRNA in the presence of chemical substance/The level of expressed mRNA in the absence of chemical substance” value (yeast gene YGR065C) was 1.5. For the same compound, the “The level of expressed mRNA in the presence of chemical substance/The level of expressed mRNA in the absence of chemical substance” value (yeast gene YGR082W) was 0.9, the “The level of expressed mRNA in the presence of chemical substance/The level of expressed mRNA in the absence of chemical substance” value (yeast gene YGR096W) was 1.0 and the “The level of expressed mRNA in the presence of chemical substance/The level of expressed mRNA in the absence of chemical substance” value (yeast gene YGR138C) was 1.6. The “The level of expressed mRNA in the presence of chemical substance/The level of expressed mRNA in the absence of chemical substance” value (yeast gene YGR191W) was 0.7 and the “The level of expressed mRNA in the presence of chemical substance/The level of expressed mRNA in the absence of chemical substance” value (yeast gene YGR197C) was 2.4.
